# According to patent US4584382A, “Pyridyl acrylate compound” (priority 1984, dated 1986):
# Tests used:
# H1 histamine receptor = molecular target: T1, H1 histamine receptor (Cavia porcellus, UniProt P31389); assay: Antihistaminic activity: antagonism of histamine concentration-response curves in isolated guinea-pig ileum longitudinal muscle (Schild plot); assay type: cell-based; conditions: negative log of the antagonist concentration shifting the histamine control curve 2X to the right; one hour incubation; read-out: pA2 (converted)
# T1 construct: The longitudinal muscle was isolated from the intact ileum of guinea-pigs; from tissue; host or cells: guinea-pig (Hartley, male) ileum longitudinal muscle
# T1 sequence (P31389 whole entry): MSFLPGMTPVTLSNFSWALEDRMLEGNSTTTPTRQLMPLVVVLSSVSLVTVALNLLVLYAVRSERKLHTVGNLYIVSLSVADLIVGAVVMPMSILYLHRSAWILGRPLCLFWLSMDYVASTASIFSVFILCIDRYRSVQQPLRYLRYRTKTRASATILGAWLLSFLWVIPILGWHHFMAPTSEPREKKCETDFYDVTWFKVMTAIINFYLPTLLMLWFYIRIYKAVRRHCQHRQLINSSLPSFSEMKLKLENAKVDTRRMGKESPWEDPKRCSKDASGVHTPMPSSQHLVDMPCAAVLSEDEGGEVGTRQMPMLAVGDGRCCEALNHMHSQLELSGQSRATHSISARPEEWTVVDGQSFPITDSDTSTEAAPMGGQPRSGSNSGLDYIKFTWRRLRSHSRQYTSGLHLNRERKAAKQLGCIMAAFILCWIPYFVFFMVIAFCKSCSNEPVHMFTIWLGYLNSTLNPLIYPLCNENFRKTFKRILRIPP
# Experimental: The longitudinal muscle was isolated from the intact ileum of guinea-pigs (Hartley, male 250-400 g) and placed in an organ bath under 300 mg tension. After one hour of equilibration, cumulative concentration-response curves (Van Rossum, J. M., Arch. Int. Pharmacodyn. Ther. 143, 299-330, 1963) to histamine were obtained. Following washing, the tissues were incubated for one hour with the test compound and then a second histamine concentration-response curve was run. Shifts to the right of the agonist concentration-response curve produced by the antagonists were used to construct Schild plots (Arunlakshana, O. and Schild, H. O., Br. J. Pharmacol: 14, 48-58, 1959). Regression of Log (dr-1) on Log [B], where dr is an equiactive response in the presence and absence of antagonist and [B] is the molar concentration of antagonist, allowed an estimate of pA2, i.e. the negative log of the concentration of antagonist which shifts the control histamine concentration-response curve 2X to the right.
# [1] = antihistamines now in use; cited from earlier work
# [2] = clinical use; cited from earlier work
# [3] = human, in vivo; cited from earlier work
# [4] = Pharmacokinetic studies comparing relative distribution in brain and plasma; assay type: in vivo; conditions: rodents
# [5] = test system: H1 histamine receptor sites; assay: Binding to H1 histamine receptor sites (statement); parameters: species or system mammals including humans
# [6] = Sedative effects (statement); assay type: in vivo; conditions: in contrast to the antihistamines in present use
# [7] = Anticholinergic activity / side effects (statement); conditions: in contrast to the antihistamines in present use
smiles,measurement,setting,value
"Cc1ccc(/C(=C\CN2CCCC2)c2ccccn2)cc1 [Triprolidine, (E)-1-(4-methylphenyl)-1-(2-pyridyl)-3-pyrrolidinoprop-1-ene]",Kb,H1 histamine receptor,0.0794 nM
same,anticholinergic activity,[1],varying degrees of anticholinergic activity
same,antihistamine potency,[2],one of the most potent antihistamines available
same,sedation and drowsiness,[3],produces sedation and drowsiness in varying degrees in most patients
COc1ccc(CN(CCN(C)C)c2ccccn2)cc1 [pyrilamine],anticholinergic activity,[1],varying degrees of anticholinergic activity
"O=C(O)/C=C/c1cccc(/C(=C/CN2CCCC2)c2ccc(C(F)(F)F)cc2)n1 [Compound of Formula (I), (E)-3-{6-[3-Pyrrolidino-1(4-Trifluoromethylphenyl)prop-1E-enyl]-2-pyridyl}acrylic acid]",Kb,H1 histamine receptor,0.0398 nM
same,brain penetration,[4],does not readily penetrate the brains of rodents
same,binding to H1 histamine receptor sites,[5],binds competitively to the H1 histamine receptor sites
same,sedating effect,[6],essentially not sedating
same,anticholinergic side effects,[7],little or no anticholinergic side effects
CC(CN1c2ccccc2Sc2ccccc21)N(C)C (centres unmarked) [promethazine],anticholinergic activity,[1],varying degrees of anticholinergic activity
